Read-outs that look alike come from different tables or passages of the source.
Key:
[1] = test system: human prostate cancer cells (PC3); test: MTT dye reduction viability test, PC3; type: cell-based; conditions: Homo sapiens; for IC50: read-out: Cytotoxic activity IC50, PC3; for viability at 10 µM: PC3, 10 µM; for viability at 10 µM / viability at 20 µM / viability at 40 µM / viability at 60 µM / viability at 80 µM / viability at 100 µM: representative MTT result (Table S1 A); for viability at 20 µM: PC3, 20 µM; for viability at 40 µM: PC3, 40 µM; for viability at 60 µM: PC3, 60 µM; for viability at 80 µM: PC3, 80 µM; for viability at 100 µM: PC3, 100 µM, read-out: Cells viability
Protocol: (§1) We have chosen two types of cell culture lines: human prostate cancer cells (PC3) and normal human immortal keratinocyte cells (HaCaT) (Table 1).
(§2) Human prostate cancer cells (PC3) and human immortal keratinocyte cell line from adult human skin (HaCaT) were obtained from American Type Culture Collection (Teddington, UK) and cultured according to its instructions RPMI 1640 (L0490) medium or DMEM (L0102) medium, respectively, in a 95% air and 5% CO2 humidified incubator at 37 °C. Both media (Biowest) were supplemented with 10% fetal bovine serum (FBS), 100 U/mL penicillin and 100 μg/mL streptomycin. 10 mM stock solutions of tested compounds in DMSO were prepared.
(§3) To assess the cells growth inhibition, the MTT dye reduction test was preformed based on the method described by Präbst et al.. Both PC3 and HaCaT cells (1 × 10^3/well) were seeded into 96-well plates and incubated for 24 h to attach to the bottom of the well in appropriate medium (200 μL) and treated with tested compounds (0–100 μM). The medium with compounds was removed after 72 h and MTT (0.5 mg/mL) in fresh growth medium without serum was added to each well. The plates were incubated in dark for 4 h at 37 °C. Then, the solution in each well was removed and refilled with 100 μL DMSO: isopropanol (1:1) to dissolve formazon crystals. The optical density was measured with an UVM 340 (ASYS Hitech GmbH, Austria) microplate reader at 570 nm. Replicates of three wells for each dosage, including vehicle control, were analyzed for each experiment. The experiments were conducted in triplicate. The results are expressed as IC50 values. The value of IC50 was estimated using CompuSyn version 1.0.

rat brain homogenate = test: Lipid peroxidation (MDA/TBA) induced by FeCl2 and ascorbic acid; type: biochemical; conditions: 10 µM compound, oxidation by 0.1% FeCl2 and 1 mM ascorbic acid, 1 h 37 °C; control 9.644 ± 1.570
Protocol: The antioxidant potential of the new flavone derivatives was assessed based on the analysis of malondialdehyde concentration formed as a product of lipid oxidation stimulated by iron (II) ions.
After preparation, the brain was placed on an ice plate and washed with cold 0.9% NaCl. 10% (m/v) brain solution was obtained by homogenization in cold 10 mM TRIS-HCl buffer, pH = 7.5. The homogenate was centrifuged (2000 rpm, 10 min, 4 °C) to obtain supernatant 1 (S1).
100 µM stock solutions of test compounds in DMSO were prepared. The test compound solution was added to a […] S1 homogenate to a final concentration of 10 µM.
The oxidation reaction was induced by adding to the samples with or without the test compounds freshly prepared solutions: 0.1% FeCl2 (0.2 mL) and 1 mM ascorbic acid (0.4 mL). After incubation for 1 h at 37 °C, the reaction was stopped by adding 8.1% sodium dodecyl sulfate (SDS) solution. In order to determine the concentration of MDA, the acetic acid/HCl buffer at pH = 3.4 and 120 μL of 0.8% thiobarbituric acid (TBA) solution at pH = 6 were added to the samples. The samples were incubated for 1 h at 100 °C. After incubation, the samples were cooled on ice and centrifuged for 10 min at 4000 RPM. The absorbance was measured at a wavelength of 532 nm. Blank content: 0.5 mL of acetate buffer + 0.5 mL of TBA solution.
Calculation of malondialdehyde (MDA) concentration (Equation (1)):(1) MDA concentration=∆ A532 nm × 1.56 ×10^−6 [nmol MDA/h/g tissue]

[2] = MTT dye reduction viability test, HaCaT; type: cell-based, human; conditions: human; for viability at 72 h, 10 µM / viability at 72 h, 20 µM / viability at 72 h, 40 µM / viability at 72 h, 60 µM / viability at 72 h, 80 µM / viability at 72 h, 100 µM: HaCaT, representative MTT result (Table S1 B); for viability at 72 h, 100 µM: read-out: Cells viability
Protocol: as §1, §2, §3

[3] = HaCaT cells (immortal keratinocytes), 72 h exposure, MTT, mean ± SD, read-out: Cytotoxic activity IC50, HaCaT
[4] = HaCaT cells (immortal keratinocytes)

Row | melting point | Structure (SMILES) | IC50 ([1]; 72 h exposure, MTT, mean ± SD) | viability at 10 µM ([1]; 72 h) | viability at 20 µM ([1]; 72 h) | viability at 40 µM ([1]; 72 h) | viability at 60 µM ([1]; 72 h) | viability at 80 µM ([1]; 72 h) | viability at 100 µM ([1]; 72 h) | MDA concentration (rat brain homogenate) | IC50 at 72 h [2, 3] | viability at 72 h, 10 µM [2, 4] | viability at 72 h, 20 µM [2, 4] | viability at 72 h, 40 µM [2, 4] | viability at 72 h, 60 µM [2, 4] | viability at 72 h, 80 µM [2, 4] | viability at 72 h, 100 µM [2, 4] | IC50 ([1]; 72 h) | IC50 at 72 h ([2]; Cytotoxic activity IC50, HaCaT)
1 | 73.3 to 74.5 °C | CCCCCCCCC=CCCCCCCCC(=O)Oc1ccc2c(=O)cc(-c3ccccc3)oc2c1 [7-Oleic-Flavone, 7-hydroxy-flavone oleic ester] | 39.3 ± 2.11 µM | 92.2% | 80.8% | 48.2% | 41% | 42.2% | 38.9% | 8.465 ± 0.834 mM × 10^−3 | 44.9 ± 6.44 µM | 95.3% | 79.3% | 51.9% | 39.9% | 38.7% | 44.9% | – | –
2 | 137.8 to 139.7 °C | CC=CC=CC(=O)Oc1ccc2c(=O)cc(-c3ccccc3)oc2c1 [7-Sorbic-Flavone, 7-hydroxy-flavone sorbic ester] | 94.3 ± 4.24 µM | 84% | 80.9% | 93.6% | 74.5% | 69.6% | 75.2% | 8.361 ± 0.050 mM × 10^−3 | 50.8 ± 2.48 µM | 97.5% | 87.2% | 80.1% | 41% | 57.4% | 43.7% | – | –
3 | 84.5 to 85.7 °C | CCCCCCCCCCCCCCCCCC(=O)Oc1ccc2c(=O)cc(-c3ccccc3)oc2c1 [7-Stearic-Flavone, 7-hydroxy-flavone stearic ester] | 33.2 ± 4.81 µM | 100% | 87.7% | 41.8% | 32.2% | 47.9% | 27.5% | 8.151 ± 0.343 mM × 10^−3 | 45.6 ± 7.2 µM | 95.8% | 65.3% | 59.1% | 39.8% | 35.7% | 20.7% | – | –
4 | – | O=c1cc(-c2ccccc2)oc2ccc(O)cc12 [Compound 13, 6-Hydroxy-Flavone, reference compound] | – | 89.4% | 87.8% | 99% | 110% | 87% | 73.2% | – | – | 96.4% | 83.8% | 77.9% | 95.1% | 84.9% | 87.8% | – | –
5 | – | COc1cccc2c1C(=O)c1c(O)c3c(c(O)c1C2=O)C[C@@](O)(C(=O)CO)C[C@@H]3O[C@H]1C[C@H](N)[C@H](O)[C@H](C)O1 [doxorubicin, reference compound] | – | – | – | – | – | – | – | – | – | – | – | – | – | – | – | 0.29 µM | 0.31 µM
